Laboratory results from paper PMC4150853 (Biochemical and biophysical research communications, 2014).

Experiments:
[1] = target: T1, α2A adrenergic receptor (α2AAR) (Mus musculus, UniProt Q01338); assay: competition radioligand binding with 3H-RX821002
T1 sequence (Q01338 1-465): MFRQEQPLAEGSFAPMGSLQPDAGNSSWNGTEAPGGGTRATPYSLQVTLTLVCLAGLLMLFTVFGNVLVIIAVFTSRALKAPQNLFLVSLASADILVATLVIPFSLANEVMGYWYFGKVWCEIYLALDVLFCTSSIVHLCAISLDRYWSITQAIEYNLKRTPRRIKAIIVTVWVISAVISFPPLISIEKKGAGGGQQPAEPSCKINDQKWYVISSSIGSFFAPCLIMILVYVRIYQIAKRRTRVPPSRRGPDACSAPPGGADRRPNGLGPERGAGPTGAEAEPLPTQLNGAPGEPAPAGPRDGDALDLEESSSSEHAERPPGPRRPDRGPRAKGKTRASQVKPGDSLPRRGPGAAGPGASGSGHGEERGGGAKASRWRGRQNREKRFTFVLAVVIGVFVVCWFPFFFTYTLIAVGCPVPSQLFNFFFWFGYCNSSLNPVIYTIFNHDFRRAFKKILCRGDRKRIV

[2] = target: T1, α2A adrenergic receptor (α2AAR); assay: […]GTPγS binding, […] NE, nearly two-fold induction; format: cell-based
[3] = target: T1, α2A adrenergic receptor (α2AAR); assay: radioligand of the competition binding assay

| SMILES | Ki [1] [µM] | further results |
| --- | --- | --- |
| CN(C)CCC=C1c2ccccc2CCc2ccccc21 [AMI, amitriptyline] | 0.33 |  |
| CN(C)CCC[C@@]1(c2ccc(F)cc2)OCc2cc(C#N)ccc21 [ESC, escitalopram] | 79.4 |  |
| CN(C)CCCN1c2ccccc2CCc2ccccc21 [IMI, imipramine] | 5.07 |  |
| NC[C@H](O)c1ccc(O)c(O)c1 [NE, norepinephrine] |  | [35S]GTPγS binding, 10 μM NE, nearly two-fold induction [2]: G protein coupling response by α2AARs is seen only in response the endogenous agonist NE, which drives a nearly two-fold induction |
| COC1(C2=NCCN2)COc2ccccc2O1 (centres unmarked) [RX821002] |  | radioligand of the competition binding assay [3]: the radioligand was a ^3H-labeled form of the α2AR antagonist RX821002 |
